Source: ChEMBL document CHEMBL4138123, “Design, synthesis and biological evaluation of novel pyrazolochalcones as potential modulators of PI3K/Akt/mTOR pathway and inducers of apoptosis in breast cancer cells” (Eur J Med Chem, 2017)

What was measured:
Assay type in all cases: functional
[1] = tested on: CCRF-CEM; assay: Cytotoxicity against human CCRF-CEM cells assessed as growth inhibition after 48 hrs by sulforhodamine B assay
[2] = tested on: COLO 205; assay: Cytotoxicity against human COLO205 cells assessed as growth inhibition after 48 hrs by sulforhodamine B assay; conditions: COLO 205, 48 h
[3] = tested on: LOX IMVI; assay: Cytotoxicity against human LOXIMVI cells assessed as growth inhibition after 48 hrs by sulforhodamine B assay
[4] = tested on: M14; assay: Cytotoxicity against human M14 cells assessed as growth inhibition after 48 hrs by sulforhodamine B assay; conditions: M14, 48 h
[5] = tested on: MDA-MB-435; assay: Cytotoxicity against human MDA-MB-435 cells assessed as growth inhibition after 48 hrs by sulforhodamine B assay; conditions: MDA-MB-435, 48 h
[6] = tested on: OVCAR-3; assay: Cytotoxicity against human OVCAR3 cells assessed as growth inhibition after 48 hrs by sulforhodamine B assay; conditions: OVCAR-3, 48 h
[7] = tested on: DU-145; assay: Cytotoxicity against human DU145 cells assessed as growth inhibition after 48 hrs by sulforhodamine B assay; conditions: DU-145, 48 h
[8] = tested on: SK-MEL-28; assay: Cytotoxicity against human SK-MEL-28 cells assessed as cell growth at 0.01 uM after 48 hrs by sulforhodamine B assay relative to control; conditions: SK-MEL-28, 48 h, read-out: Activity
[9] = tested on: KM12; assay: Cytotoxicity against human KM12 cells assessed as cell growth at 0.01 uM after 48 hrs by sulforhodamine B assay relative to control; conditions: KM12, 48 h, read-out: Activity
[10] = tested on: HT-29; assay: Cytotoxicity against human HT-29 cells assessed as cell growth at 0.01 uM after 48 hrs by sulforhodamine B assay relative to control; conditions: HT-29, 48 h, read-out: Activity
[11] = tested on: HCT-15; assay: Cytotoxicity against human HCT15 cells assessed as cell growth at 0.01 uM after 48 hrs by sulforhodamine B assay relative to control; conditions: HCT-15, 48 h, read-out: Activity
[12] = tested on: HCC 2998; assay: Cytotoxicity against human HCC2998 cells assessed as cell growth at 0.01 uM after 48 hrs by sulforhodamine B assay relative to control; conditions: HCC 2998, 48 h, read-out: Activity
[13] = tested on: TK-10; assay: Cytotoxicity against human TK10 cells assessed as cell growth at 0.01 uM after 48 hrs by sulforhodamine B assay relative to control; conditions: TK-10, 48 h, read-out: Activity
[14] = tested on: Hs-578T; assay: Cytotoxicity against human Hs 578T cells assessed as cell growth at 0.01 uM after 48 hrs by sulforhodamine B assay relative to control; conditions: read-out: Activity
[15] = tested on: MDA-MB-468; assay: Cytotoxicity against human MDA-MB-468 cells assessed as cell growth at 0.01 uM after 48 hrs by sulforhodamine B assay relative to control; conditions: MDA-MB-468, 48 h, read-out: Activity
[16] = tested on: SR; assay: Cytotoxicity against human SR cells assessed as cell growth at 0.1 uM after 48 hrs by sulforhodamine B assay relative to control; conditions: read-out: Activity
[17] = tested on: COLO 205; assay: Cytotoxicity against human COLO205 cells assessed as cell growth at 0.1 uM after 48 hrs by sulforhodamine B assay relative to control; conditions: COLO 205, 48 h, read-out: Activity
[18] = tested on: HCC 2998; assay: Cytotoxicity against human HCC2998 cells assessed as cell growth at 0.1 uM after 48 hrs by sulforhodamine B assay relative to control; conditions: HCC 2998, 48 h, read-out: Activity
[19] = tested on: UACC-257; assay: Cytotoxicity against human UACC257 cells assessed as cell growth at 0.1 uM after 48 hrs by sulforhodamine B assay relative to control; conditions: UACC-257, 48 h, read-out: Activity
[20] = tested on: SK-OV-3; assay: Cytotoxicity against human SKOV3 cells assessed as cell growth at 0.1 uM after 48 hrs by sulforhodamine B assay relative to control; conditions: SK-OV-3, 48 h, read-out: Activity
[21] = tested on: SN12C; assay: Cytotoxicity against human SN12C cells assessed as cell growth at 0.1 uM after 48 hrs by sulforhodamine B assay relative to control; conditions: read-out: Activity
[22] = tested on: UO-31; assay: Cytotoxicity against human UO31 cells assessed as cell growth at 0.1 uM after 48 hrs by sulforhodamine B assay relative to control; conditions: UO-31, 48 h, read-out: Activity
[23] = tested on: HOP-62; assay: Cytotoxicity against human HOP62 cells assessed as cell growth at 1 uM after 48 hrs by sulforhodamine B assay relative to control; conditions: HOP-62, 48 h, read-out: Activity
[24] = tested on: KM12; assay: Cytotoxicity against human KM12 cells assessed as cell growth at 1 uM after 48 hrs by sulforhodamine B assay relative to control; conditions: KM12, 48 h, read-out: Activity
[25] = tested on: Hs-578T; assay: Cytotoxicity against human Hs 578T cells assessed as cell growth at 1 uM after 48 hrs by sulforhodamine B assay relative to control; conditions: read-out: Activity
[26] = tested on: COLO 205; assay: Cytotoxicity against human COLO205 cells assessed as cell growth at 10 uM after 48 hrs by sulforhodamine B assay relative to control; conditions: COLO 205, 48 h, read-out: Activity
[27] = tested on: HCC 2998; assay: Cytotoxicity against human HCC2998 cells assessed as cell growth at 10 uM after 48 hrs by sulforhodamine B assay relative to control; conditions: HCC 2998, 48 h, read-out: Activity
[28] = tested on: HCT-116; assay: Cytotoxicity against human HCT116 cells assessed as cell growth at 10 uM after 48 hrs by sulforhodamine B assay relative to control; conditions: HCT-116, 48 h, read-out: Activity
[29] = tested on: HCT-15; assay: Cytotoxicity against human HCT15 cells assessed as cell growth at 10 uM after 48 hrs by sulforhodamine B assay relative to control; conditions: HCT-15, 48 h, read-out: Activity
[30] = tested on: SNB-19; assay: Cytotoxicity against human SNB19 cells assessed as cell growth at 10 uM after 48 hrs by sulforhodamine B assay relative to control; conditions: SNB-19, 48 h, read-out: Activity
[31] = tested on: OVCAR-5; assay: Cytotoxicity against human OVCAR5 cells assessed as cell growth at 10 uM after 48 hrs by sulforhodamine B assay relative to control; conditions: OVCAR-5, 48 h, read-out: Activity
[32] = tested on: OVCAR-8; assay: Cytotoxicity against human OVCAR8 cells assessed as cell growth at 10 uM after 48 hrs by sulforhodamine B assay relative to control; conditions: OVCAR-8, 48 h, read-out: Activity
[33] = tested on: MDA-MB-231; assay: Cytotoxicity against human MDA-MB-231 cells assessed as cell growth at 10 uM after 48 hrs by sulforhodamine B assay relative to control; conditions: MDA-MB-231, 48 h, read-out: Activity
[34] = tested on: A498; assay: Cytotoxicity against human A498 cells assessed as cell growth at 100 uM after 48 hrs by sulforhodamine B assay relative to control; conditions: A498, 48 h, read-out: Activity
[35] = tested on: PC-3; assay: Cytotoxicity against human PC3 cells assessed as growth inhibition after 48 hrs by sulforhodamine B assay; conditions: PC-3, 48 h

SMILES: COc1ccc(C(=O)/C=C/c2cc(-c3cc(OC)c(OC)c(OC)c3)n[nH]2)cc1
- LC50 (concentration killing 50% of cells) [1]: > 100 µM
- TGI [1]: 5.85 µM
- LC50 [2]: 6.06 µM
- TGI [2]: 3.24 µM
- TGI [3]: 3.02 µM
- LC50 (concentration killing 50% of cells) [4]: > 100 µM
- TGI [4]: 4.93 µM
- LC50 [5]: > 100 µM
- TGI [5]: 5.69 µM
- LC50 [6]: 7.27 µM
- TGI [6]: 3.56 µM
- TGI [7]: 2.83 µM
- growth at 0.01 µM [8]: 105%
- growth at 0.01 µM [9]: 99%
- growth at 0.01 µM [10]: 102%
- growth at 0.01 µM [11]: 99%
- growth at 0.01 µM [12]: 101%
- growth at 0.01 µM [13]: 89%
- growth at 0.01 µM [14]: 99%
- growth at 0.01 µM [15]: 89%
- growth at 0.1 µM [16]: 83%
- growth at 0.1 µM [17]: 101%
- growth at 0.1 µM [18]: 97%
- growth at 0.1 µM [19]: 97%
- growth at 0.1 µM [20]: 99%
- growth at 0.1 µM [21]: 96%
- growth at 0.1 µM [22]: 96%
- growth at 1 µM [23]: 87%
- growth at 1 µM [24]: 83%
- growth at 1 µM [25]: 96%
- growth at 10 µM [26]: -90%
- growth at 10 µM [27]: -83%
- growth at 10 µM [28]: -22%
- growth at 10 µM [29]: -41%
- growth at 10 µM [30]: -85%
- growth at 10 µM [31]: -70%
- growth at 10 µM [32]: -8%
- growth at 10 µM [33]: -33%
- growth at 100 µM [34]: -34%

SMILES: COc1ccc(-c2cc(/C=C/C(=O)c3ccc(OC)c(OC)c3)[nH]n2)cc1
- GI50 [1]: 1.34 µM
- LC50 (concentration killing 50% of cells) [1]: > 100 µM
- TGI [1]: 4.14 µM
- GI50 [2]: 1.76 µM
- LC50 [2]: 6.16 µM
- TGI [2]: 3.3 µM
- GI50 [4]: 2.17 µM
- LC50 (concentration killing 50% of cells) [4]: 13.8 µM
- TGI [4]: 4.97 µM
- GI50 [5]: 1.84 µM
- LC50 [5]: 8.17 µM
- TGI [5]: 3.88 µM
- GI50 [6]: 1.19 µM
- LC50 [6]: 5.15 µM
- TGI [6]: 2.47 µM
- GI50 [35]: 1.45 µM
- LC50 [35]: 8.3 µM
- TGI [35]: 3.46 µM
- GI50 [7]: 1.4 µM
- TGI [7]: 2.81 µM
- CC50 ([7]; read-out: LC50 (the source's name)): 5.64 µM
- growth at 0.01 µM [8]: 101%
- growth at 0.01 µM [9]: 105%
- growth at 0.01 µM [10]: 101%
- growth at 0.01 µM [11]: 95%
- growth at 0.01 µM [12]: 100%
- growth at 0.01 µM [13]: 100%
- growth at 0.01 µM [14]: 96%
- growth at 0.01 µM [15]: 87%
- growth at 0.1 µM [16]: 106%
- growth at 0.1 µM [17]: 104%
- growth at 0.1 µM [18]: 105%
- growth at 0.1 µM [19]: 86%
- growth at 0.1 µM [20]: 109%
- growth at 0.1 µM [21]: 93%
- growth at 0.1 µM [22]: 87%
- growth at 1 µM [23]: 94%
- growth at 1 µM [24]: 70%
- growth at 1 µM [25]: 81%
- growth at 10 µM [26]: -89%
- growth at 10 µM [27]: -68%
- growth at 10 µM [28]: -78%
- growth at 10 µM [29]: -53%
- growth at 10 µM [30]: -31%
- growth at 10 µM [31]: -49%
- growth at 10 µM [32]: 1%
- growth at 10 µM [33]: -17%
- growth at 100 µM [34]: -90%
